Measured values: patent US20110065756A1, “METHODS AND COMPOSITIONS FOR TREATMENT OF OBESITY-RELATED DISEASES” (priority 2009, published 2011)

Key:
[1] = clinical use; cited from earlier work
[2] = Rosiglitazone treatment of diet-induced obese mice: body weight, fasting plasma glucose and insulin, IPGTT; type: in vivo; conditions: obese C57BL/6J mice, 10 mg/kg/day by gavage, vs vehicle
Experimental: Ten adult (6 week-old) male C57BL/6J mice were purchased from the Jackson Laboratory. Mice were housed in a pathogen-free barrier facility (12 h light/12 h dark cycle). […] Mice were weighed every 4 weeks. After 12 weeks blood was collected after a 6 hour fast and plasma glucose levels were analyzed using the Accu-Check glucose meter. Subsequently, mice were treated with rosiglitazone (10 mg/kg/day in 1% carboxymethylcellulose in water) or vehicle by gavaging for 10 days. On day 10 the animals were subjected to an intraperitoneal glucose tolerance test (IPGTT) after a 16 hr overnight fast. Plasma glucose levels were determined at 0, 15, 30, 60 and 120 min using an Accu-Check glucose meter; at each time point 10 μl blood was collected in EDTA-coated tubes (Microvette CB300, Sarstedt, Newton, N.C.) for determination of insulin levels using an ELISA specific for mouse insulin (Alpco Diagnostics, Salem, N.H.). After the IPGTT, mice received a final treatment with rosiglitazone or vehicle (day 11) and were euthanized the next day (day 12) after a 6 hour fast under anaesthesia with isoflurane (Baxter). The epididymal fat pads, subcutaneous fat pads, liver and kidneys were harvested and stored at −80° C. for further analysis.
Results are expressed as mean±SEM. […]

[3] = RECORD, cited from earlier work

In the case of CCc1ccc(CCOc2ccc(CC3SC(=O)NC3=O)cc2)nc1 (centres unmarked) [pioglitazone], the “incidence of hepatitis and potential liver failure” value [1] is listed as “have not shown higher incidence”.

For CN(CCOc1ccc(CC2SC(=O)NC2=O)cc1)c1ccccn1 (centres unmarked) [rosiglitazone], the body weight [2] is listed as “did not influence weight”, the “incidence of hepatitis and potential liver failure” value [1] is listed as “have not shown higher incidence” and the “cardiovascular death, myocardial infarction, or stroke” value ([3]; 5-7 years follow-up, vs active control group) is listed as “No difference was observed”. The “upper and distal lower limb fracture rates” value ([3]; particularly in women) was “increased”, the “heart failure that caused either hospital admission or death” value ([3]; rosiglitazone group (29 in active control group)) was 61 patients and the “risk difference per 1000 person-years for heart failure” value ([3]; vs active control, interval 1.1-4.1) was 2.6. For the same compound, the “hazard ratio [HR] for heart failure” value ([3]; vs active control, interval 1.35-3.27) was 2.10.
